Test results: patent US4727070A, “3-Propenzl cephalosporin isomer separation process and derivative” (Bristol-Myers Company, priority 1985, dated 1988)

Experiments:
Gram-negative = conditions: cited from earlier work
[1] = Aqueous solution stability (250 mg/ml) at room temperature; type: physicochemical; conditions: for pH of the aqueous solution: aqueous solution for parenteral injection
[2] = Solubility in organic solvents (methanol, acetone, methanol-acetone mixture); type: physicochemical; conditions: for solubility in methanol-acetone mixture: methanol-acetone containing 20% to 50% by volume methanol, room temperature or below
From the text: In carrying out the foregoing process, it is preferred to use sodium 2-ethylhexanoate as salt-forming reagent, but other reagents such as sodium acetate or the sodium salt of other carboxylic acids may be employed. A reaction inert organic solvent such as a liquid alkanol or ester, is preferably employed in combination with the ketone used as imidazolidinone-forming reagent as solvent. A minimal quantity of water may also be employed to facilitate dissolution. The preferred solvents are mixtures of methanol and acetone. […] Accordingly mixtures of these two solvents are employed to provide the desired differential solubility. Mixtures of methanol and acetone containing from 20% to 50% by volume of methanol are suitable. The antibiotic sodium salt 2,2-dimethylimidazolidinone derivative is insoluble in the methanol-acetone mixture at room temperature or below while the 2,2-dimethylimidazolidinone derivative sodium salt of the (E)-isomer is soluble. This difference in solubility provides a basis for the separation of these, otherwise very similar materials.

Water solubility = type: physicochemical
[3] = Solid state stability on storage (purity of sample); type: physicochemical; conditions: for remaining at 672 h: 4 Weeks

## C/C=C\C1=C(C(=O)O)N2C(=O)C(NC(=O)[C@H](N)c3ccc(O)cc3)[C@H]2SC1 (stereo partly drawn) [BMY-28100, 7-[D-2-amino-2-(4-hydroxyphenyl)acetamido]-3-[(Z)-1-propenyl]ceph-3-em-4-carboxylic acid]
Gram-negative
  Gram-negative antibacterial activity compared to the (E)-isomer: improved

## C/C=C\C1=C(C(=O)O)N2C(=O)C(N3C(=O)[C@@H](c4ccc(O)cc4)NC3(C)C)[C@H]2SC1 (some centres unmarked) [sodium 7-[2,2-dimethyl-4-(4-hydroxyphenyl)-5-oxo-1-imidazolidinyl]-3-[(Z)-1-propenyl]ceph-3-em-4-carboxylate]
[1]; 250 mg/ml aqueous solution, room temperature, pH 7.2
  time to 10% potency loss in aqueous solution: approximately 2 hours
[1]
  pH of the aqueous solution: 7.2
[2]
  solubility in acetone: substantially insoluble
  solubility in methanol: very soluble
  solubility in methanol-acetone mixture: insoluble
Water solubility
  water solubility: several hundred
[3]; 1 Day, 100 deg. C.
  remaining at 24 h: 80%
[3]; 1 Week, 70 deg. C.
  remaining at 168 h: 94%
[3]; 37 deg. C.
  remaining at 672 h: 100%
[3]; 45 deg. C.
  remaining at 672 h: 102%
[3]; 56 deg. C.
  remaining at 672 h: 98.6%

## C/C=C/C1=C(C(=O)O)N2C(=O)C(N3C(=O)[C@@H](c4ccc(O)cc4)NC3(C)C)C2SC1 (some centres unmarked) [acetonide of BMY-28167]
[2]
  solubility in acetone: substantially insoluble
  solubility in methanol: very soluble
  solubility in methanol-acetone mixture: soluble

## C/C=C\C1=C(C(=O)[O-])N2C(=O)C(NC(=O)[C@H](N)c3ccc(O)cc3)[C@H]2SC1.[Na+] (stereo partly drawn) [sodium salt of the antibiotic, sodium 7-[D-2-amino-2-(4-hydroxyphenyl)acetamido]-3-((Z)-1-propenyl)ceph-3-em-4-carboxylate, reference compound]
[1]
  pH of the aqueous solution: 8.2
[1]; sodium salt of the antibiotic per se, solution pH 8.2
  time to 10% potency loss in aqueous solution: 30 min
